Measurements published in PubChem BioAssay AID1902 (Broad Institute, 2009).
Activity calls are given as the source filed them.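 How the source made its calls: active means EC50 no more than a set limit of log units above the highest dose; inactive means the rest.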

Molecular target: S. pyogenes SKKanGAS, kanamycin survival, BacTiterGlo, 6 h
Experiment: SKKanGAS survival reduction under kanamycin, dose response, streptokinase promoter inhibitor project, SKKanGAS strain, luminescence, dose confirmation (AID 1902);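 further: lower survival reflects blocked streptokinase promoter driving kanamycin resistance gene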

Row | Structure (SMILES) | EC50
1 | CCCCC/C=C\C/C=C\C/C=C\C/C=C\CCCC(=O)Nc1ccc(O)cc1 | 1.2 µM
2 | Cc1oc2cc(Br)c(O)c(Br)c2c1-c1ccccc1 | 3.28 µM
3 | Cc1cc(C)c2sc(NNC(=O)c3ccc(S(=O)(=O)N4CCc5ccccc5C4)cc3)nc2c1 | 1.06 µM
4 | O=[N+]([O-])c1cccnc1N1CCC(c2cc(-c3ccc(Cl)cc3Cl)n[nH]2)CC1 | 1.24 µM
5 | Cc1ccccc1C(=O)Oc1cccc(Nc2ncnc3ccccc23)c1 | 3.57 µM
6 | COc1ccc(Cn2c(-c3ccco3)nc3oc4cc(OC)ccc4c(=O)c3c2=O)cc1 | 14.7 µM
7 | COC(=O)c1c(NC(=O)c2ccccc2)sc(C(=O)c2ccccc2)c1C | 5.41 µM
8 | CCOC(=O)C1=C(c2ccc(OC)cc2)C(=O)c2ccccc2C1=O | 1.78 µM
9 | O=C(CP(=O)(c1ccccc1)c1ccccc1)N/N=C/c1cc(Br)cc(Br)c1O | 0.804 µM
10 | O=C(/C=C/c1cn(-c2ccccc2)nc1-c1ccccc1)Nc1ccc(C(=O)O)cc1 | 3.76 µM
11 | CC(C)C(=O)NC(c1ccccc1)c1cc([N+](=O)[O-])c2cccnc2c1O (configuration not stated) | 2.48 µM
12 | Cc1ccc(F)c(NC(=O)/C(C#N)=C(\O)c2ccc(C(C)(C)C)cc2)c1 | 6.33 µM
13 | O=C(CSc1nc2c(cnn2-c2ccccc2)c(=O)[nH]1)N1N=C(c2cccs2)CC1c1ccc(F)cc1 (configuration not stated) | 1.62 µM
14 | Nc1nc(N)c(C=Nc2ccc(Br)cc2)c(Nc2ccc(Br)cc2)n1 | 1.69 µM
15 | COc1ccc(C(=O)Nc2nnc(-c3ccccc3)o2)cc1OC | 5.56 µM
16 | O=C1N/C(=N\N=C\c2cccs2)SC1Cc1ccc(Cl)c(Cl)c1 (configuration not stated) | 11.4 µM
17 | O=C(c1nc2ccc(Cl)cn2c1CN1CCC(CO)CC1)N1CCc2ccccc2C1 | > 15 µM (inactive)
18 | OCCCCC#Cc1c(-c2ccsc2)sc2ccccc12 | 7.82 µM
19 | C/C(=N\Nc1ccc(C(=O)O)cc1)c1ccc2c(c1)Nc1ccccc1S2 | 2.45 µM
20 | C=C(C)COc1ccc(-c2nc(N)ncc2Oc2ccc(OC)cc2)c(O)c1 | 6.59 µM
21 | Cc1cccc(N2CCN(C(=O)C34CC5CC(CC(C5)C3)C4)CC2)c1C | 5.65 µM
22 | COc1ccc(-c2csc(Nc3ccc(S(=O)(=O)Nc4cc(C)on4)cc3)n2)cc1C | 6.44 µM
23 | CCCc1cc(C(=O)Nc2ccc(C(=O)c3ccc(F)cc3)cc2)n(C)n1 | > 15 µM (inactive)
24 | CCCc1sc(N/N=C/c2ccccn2)nc1-c1ccc(F)cc1 | 9.33 µM
25 | CN(C)c1nc(SCc2ccccc2Cl)nc2c1CCCC2 | 6.27 µM
26 | Cc1ccc(N=N/C(=C\O)C(=O)c2ccc(Cl)cc2)cc1 | 8.59 µM

Row | Structure (SMILES) | EC50
27 | CCCC(=O)NC(c1ccc(C)cc1)c1ccc2cccnc2c1O (configuration not stated) | 4.16 µM
28 | CC(C)(O)c1[nH]c2cc(F)ccc2c1C(C)(C)O | 1.67 µM
29 | Cc1cc(/C=C2\SC(=O)NC2=O)c(C)n1-c1ccc(N2CCOCC2)cc1 | 1.58 µM
30 | COc1cc(/C(C)=C/c2ccccc2)c2c(c1)oc1ccccc12 | 4.04 µM
31 | CCC(=C/c1sc2ccc3ccccc3c2[n+]1C)/C=C1\Sc2ccc3ccccc3c2N1C | 2.67 µM
32 | Cc1cc(NC(=O)c2cnccn2)no1 | > 15 µM (inactive)
33 | CCCCCC/C(=N/O)c1ccccn1 | 15.4 µM
34 | COCc1cc(=O)[nH]c(Nc2nc3ccc(C)cc3o2)n1 | 2.27 µM
35 | CC(C)(C)c1cc(-c2csc(Nc3ccccc3)[n+]2Cc2ccc(C(=O)O)cc2)cc(C(C)(C)C)c1O | 2.15 µM
36 | COc1ccc(-c2sc3ccc(OC)cc3c2C#CCCO)cc1 | 9.27 µM
37 | CCCOc1ccc(C(=O)NNC(=S)NC(=O)CC)cc1 | 0.431 µM
38 | Cc1noc(C)c1CSc1nc2ccccc2nc1NS(=O)(=O)c1ccc(Cl)cc1 | 3.13 µM
39 | CCS(=O)(=O)N1Cc2ccccc2CC1C(=O)Nc1nnc(SCc2ccc(C#N)cc2)s1 (configuration not stated) | 8.26 µM
40 | O=C(Nc1nnc(-c2ccncc2)o1)c1ccc2ccccc2c1 | 5.02 µM
41 | O=c1c2c(nc(NCCO)n1CC1CCCCC1)-c1ccccc1CC21CCCC1 | 4.16 µM
42 | CCn1c(SCC(=O)N2CC(C)OC(C)C2)nc2c([nH]c3ccccc32)c1=O (configuration not stated) | > 15 µM (inactive)
43 | CCOc1ccc(-c2nnc(NC(=O)c3ccc(OCC(C)C)c(OC)c3)o2)cc1 | 0.347 µM
44 | Cc1cc(C)c(C(=O)CC(=O)c2ccccc2Cl)c(O)c1 | 6.76 µM
45 | Cc1nc(NS(=O)(=O)c2ccc(Cl)s2)c2c3c(sc2n1)CCCC3 | 3.98 µM
46 | COc1ccc(S(=O)(=O)N[C@@H](C)C(=O)OCC(=O)Nc2cc3oc4ccccc4c3cc2OC)cc1 | 1.42 µM
47 | CCOC(=O)C1=NN(C(=O)c2ccc(OC)cc2)C(O)(c2ccc(Cl)cc2)C1 (configuration not stated) | 6 µM
48 | Cc1ccccc1/C=C/C(=O)c1ccc([N+](=O)[O-])o1 | 4.61 µM
49 | CCOC(=O)c1sc2nccc(N(C)C)c2c1N=CNOCc1c(F)cccc1Cl | 5.16 µM
50 | Fc1ccc(CO/N=C/C2=C(Cl)c3ccccc3CC2)cc1 | 3.96 µM
51 | O=C(NNC(=O)c1ccccc1OCc1ccccc1Cl)c1csc(N2CCOCC2)n1 | 5.04 µM
52 | COc1ccccc1CNC(=O)CSc1nc(=O)n(Cc2ccncc2)c2c1CCC2 | > 15 µM (inactive)

Row | Structure (SMILES) | EC50
53 | O=C(CSc1nnc(NC(=O)C2CC(=O)N(c3ccc(F)cc3)C2)s1)NCc1ccco1 (configuration not stated) | > 15 µM (inactive)
54 | CCCCCCC(=O)N/N=C/c1c(O)n(CCCC)c(=S)[nH]c1=O | 2.12 µM
55 | OC(c1ccc(OCc2ccccc2)cc1)c1nnc(-c2ccccc2)o1 (configuration not stated) | 13.4 µM
56 | COc1ccc(C(=O)Nc2cccc(/C=C(\CCC(=O)O)c3nc4ccccc4s3)c2)cc1 | 8.09 µM
57 | O=C(/C=C/c1ccc(F)cc1)NC(=S)NNC(=O)c1cnccn1 | 1.96 µM
58 | Cc1noc(C)c1CSCC(=O)Nc1nc2ccc(Oc3ccccc3)cc2s1 | 4.85 µM
59 | CCC(=O)N1N=C(c2c(O)n(C)c(=O)n(C)c2=O)CC1c1ccccc1 (configuration not stated) | 2.42 µM
60 | Cc1ccccc1N1CCN(S(=O)(=O)c2nnc(NC(=O)c3ccco3)s2)CC1 | 4.46 µM
61 | CCc1ccc2[nH]c(=O)c(C3C(C#N)=C(N)Oc4c3ccc3cccnc43)cc2c1 (configuration not stated) | 1.63 µM
62 | Cc1ccc(C(NC(=O)NC(C)c2ccccc2)C(Cl)(Cl)Cl)cc1F (configuration not stated) | 6.41 µM
63 | O=c1cc(-c2ccc(O)c(-c3c(O)cc(O)c4c(=O)cc(-c5ccc(O)cc5)oc34)c2)oc2cc(O)cc(O)c12 | 2.3 µM
64 | CC1=NN(c2ccccc2)C(=O)/C1=C/c1c(O)n(-c2ccc(F)c(Cl)c2)[nH]c1=O | 3.61 µM
65 | CC(=O)OCCCNc1cc(Sc2nc3ccccc3s2)c2nonc2c1[N+](=O)[O-] | 2.43 µM
66 | Cc1cc(=O)c(C(=O)O)cn1Nc1ccc(Cl)cc1 | 2.36 µM
67 | Fc1ccc(-[n+]2nc(Nc3ccccc3)sc2-c2c3ccccc3cc3ccccc23)cc1 | 5.95 µM
68 | C=CCc1cc(/C=C2/NC(=O)N(CC)C2=O)cc(OCC)c1OCc1ccc(C(=O)O)cc1 | 11.9 µM
69 | Cc1ccc(-c2csc3ncnc(NS(=O)(=O)c4ccc(Cl)cc4)c23)cc1 | 6.82 µM
70 | O=C(NC(=S)NNC(=O)c1ccccc1O)c1ccc(F)cc1 | 1.29 µM
71 | Oc1c(Br)cc(Br)cc1/C=N/NC(=S)N[C@H]1CC2C=CC1C2 (some centres not stated) | 0.15 µM
72 | Cc1ccc(-n2sc3ccccc3c2=O)cc1 | 1.27 µM
73 | O=C(COc1ccc(F)cc1Cl)Nc1nc(-c2ccccn2)cs1 | 1.12 µM
74 | COc1cc2c3c(c1)/C(=C1/SC(=S)NC1=O)C(=O)N3C(C)(C)C=C2C | 1.1 µM
75 | Clc1ccc(-c2n[nH]c3c2CCC3)c(Cl)c1 | 0.975 µM
76 | O=C(COc1ccc(Cl)cc1Cl)Nc1ccc(-c2ccc(N3CCOCC3)nn2)cc1 | > 15 µM (inactive)
77 | CCC(C)Sc1cc(-c2nc3ccc(C)cn3c2NCc2ccccc2)ccc1OC (configuration not stated) | 1.42 µM
